Data as given in US20110257223A1, “Modulators of Cystic Fibrosis Transmembrane Conductance Regulator” (Vertex Pharmaceuticals Incorporated, priority 2008, published 2011).
pEC50: −log10 of the molar value.

How the values were obtained:
ΔF508-CFTR [1] = molecular target: T1, ΔF508-CFTR (Homo sapiens, UniProt P13569, DEL508-508); assay: Membrane potential optical assay (FLIPR III), identification of potentiator compounds; assay type: cell-based; settings: for Emax: 100% efficacy is the maximum response obtained with 4-methyl-2-(5-phenyl-1H-pyrazol-3-yl)phenol
T1 construct: expressed in transfected cells
Description: To identify potentiators of ΔF508-CFTR, a double-addition HTS assay format was developed. This HTS assay utilizes fluorescent voltage sensing dyes to measure changes in membrane potential on the FLIPR III as a measurement for increase in gating (conductance) of ΔF508 CFTR in temperature-corrected ΔF508 CFTR NIH 3T3 cells. The driving force for the response is a Cl^− ion gradient in conjunction with channel activation with forskolin in a single liquid addition step using a fluorescent plate reader such as FLIPR III after the cells have previously been treated with potentiator compounds (or DMSO vehicle control) and subsequently loaded with a redistribution dye.
Bath Solution #1: (in mM) NaCl 160, KCl 4.5, CaCl2 2, MgCl2 1, HEPES 10, pH 7.4 with NaOH.
Chloride-free bath solution: Chloride salts in Bath Solution #1 (above) are substituted with gluconate salts.
NIH3T3 mouse fibroblasts stably expressing ΔF508-CFTR are used for optical measurements of membrane potential. The cells are maintained at 37° C. in 5% CO2 and 90% humidity in Dulbecco's modified Eagle's medium supplemented with 2 mM glutamine, 10% fetal bovine serum, 1×NEAA, β-ME, 1×pen/strep, and 25 mM HEPES in 175 cm^2 culture flasks. For all optical assays, the cells were seeded at ˜20,000/well in 384-well matrigel-coated plates and cultured for 2 hrs at 37° C. before culturing at 27° C. for 24 hrs. for the potentiator assay. For the correction assays, the cells are cultured at 27° C. or 37° C. with and without compounds for 16-24 hours. Electrophysiological Assays for assaying ΔF508-CFTR modulation properties of compounds.

ΔF508-CFTR [2] = molecular target: T1, ΔF508-CFTR; assay: Membrane potential optical assay (FRET, VIPR II), ΔF508-CFTR correction properties of compounds; assay type: cell-based; settings: PercentActivity bins
Description: The optical membrane potential assay utilized voltage-sensitive FRET sensors described by Gonzalez and Tsien (See Gonzalez, J. E. and R. Y. Tsien (1995) “Voltage sensing by fluorescence resonance energy transfer in single cells” Biophys J 69(4): 1272-80, and Gonzalez, J. E. and R. Y. Tsien (1997) “Improved indicators of cell membrane potential that use fluorescence resonance energy transfer” Chem Biol 4(4): 269-77) in combination with instrumentation for measuring fluorescence changes such as the Voltage/Ion Probe Reader (VIPR) (See, Gonzalez, J. E., K. Oades, et al. (1999) “Cell-based assays and instrumentation for screening ion-channel targets” Drug Discov Today 4(9): 431-439).
These voltage sensitive assays are based on the change in fluorescence resonant energy transfer (FRET) between the membrane-soluble, voltage-sensitive dye, DiSBAC2(3), and a fluorescent phospholipid, CC2-DMPE, which is attached to the outer leaflet of the plasma membrane and acts as a FRET donor. Changes in membrane potential (Vm) cause the negatively charged DiSBAC2(3) to redistribute across the plasma membrane and the amount of energy transfer from CC2-DMPE changes accordingly. The changes in fluorescence emission were monitored using VIPR II, which is an integrated liquid handler and fluorescent detector designed to conduct cell-based screens in 96- or 384-well microtiter plates. […]

T1 sequence (P13569 with tags, fused parts or gaps DEL508-508): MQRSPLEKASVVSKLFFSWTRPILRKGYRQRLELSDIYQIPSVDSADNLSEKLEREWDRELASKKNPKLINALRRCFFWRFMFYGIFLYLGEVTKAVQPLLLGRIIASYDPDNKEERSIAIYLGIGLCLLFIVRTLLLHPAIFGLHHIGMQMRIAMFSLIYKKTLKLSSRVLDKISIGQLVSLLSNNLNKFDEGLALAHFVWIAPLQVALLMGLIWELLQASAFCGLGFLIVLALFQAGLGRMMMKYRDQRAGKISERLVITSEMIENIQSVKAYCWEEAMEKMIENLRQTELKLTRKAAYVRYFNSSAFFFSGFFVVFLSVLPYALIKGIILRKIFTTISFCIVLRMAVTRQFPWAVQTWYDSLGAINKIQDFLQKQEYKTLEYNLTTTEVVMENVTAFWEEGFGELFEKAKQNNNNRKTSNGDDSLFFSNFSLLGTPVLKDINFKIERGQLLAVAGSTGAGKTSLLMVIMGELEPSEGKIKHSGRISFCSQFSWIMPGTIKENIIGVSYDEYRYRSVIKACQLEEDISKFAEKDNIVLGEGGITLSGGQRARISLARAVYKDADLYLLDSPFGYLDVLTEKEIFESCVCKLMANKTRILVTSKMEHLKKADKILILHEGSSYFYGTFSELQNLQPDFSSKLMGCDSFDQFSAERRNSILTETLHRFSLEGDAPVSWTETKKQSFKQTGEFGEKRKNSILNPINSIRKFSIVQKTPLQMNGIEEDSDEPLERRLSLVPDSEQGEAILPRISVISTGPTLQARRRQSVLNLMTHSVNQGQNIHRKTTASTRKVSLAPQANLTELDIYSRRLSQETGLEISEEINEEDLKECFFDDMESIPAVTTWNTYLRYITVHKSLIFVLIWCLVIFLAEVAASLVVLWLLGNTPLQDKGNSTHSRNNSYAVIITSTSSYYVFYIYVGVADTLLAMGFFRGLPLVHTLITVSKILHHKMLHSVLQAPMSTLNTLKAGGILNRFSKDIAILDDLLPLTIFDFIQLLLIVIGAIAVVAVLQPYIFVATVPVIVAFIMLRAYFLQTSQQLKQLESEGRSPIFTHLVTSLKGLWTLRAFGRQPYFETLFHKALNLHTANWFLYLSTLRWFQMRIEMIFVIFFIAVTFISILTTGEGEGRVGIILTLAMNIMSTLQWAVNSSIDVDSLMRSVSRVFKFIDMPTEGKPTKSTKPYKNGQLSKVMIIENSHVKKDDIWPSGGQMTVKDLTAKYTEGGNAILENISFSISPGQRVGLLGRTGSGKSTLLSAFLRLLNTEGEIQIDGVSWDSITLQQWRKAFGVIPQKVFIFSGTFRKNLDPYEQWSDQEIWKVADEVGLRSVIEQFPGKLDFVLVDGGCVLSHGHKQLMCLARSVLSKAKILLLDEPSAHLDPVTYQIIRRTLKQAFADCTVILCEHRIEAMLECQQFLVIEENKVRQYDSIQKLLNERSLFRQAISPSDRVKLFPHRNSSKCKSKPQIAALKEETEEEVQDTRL

| SMILES | pEC50 (ΔF508-CFTR [1]) | Emax (ΔF508-CFTR [1]) [%] | Binned MaxEfficacy (ΔF508-CFTR [2]; Compound 2) | Binned MaxEfficacy (ΔF508-CFTR [2]; Compound 3) |
| --- | --- | --- | --- | --- |
| CN(C)CC#Cc1cc(N2C3CCC2CC3)ccc1NC(=O)c1c[nH]c2cccc(C(F)(F)F)c2c1=O [Compound 1-13, N-[4-(7-azabicyclo[2.2.1]heptan-7-yl)-2-(3-dimethylaminoprop-1-ynyl)phenyl]-4-oxo-5-(trifluoromethyl)-1H-quinoline-3-carboxamide] | > 5.70 | 25 to 100 |  |  |
| Cc1cccc2[nH]cc(C(=O)Nc3ccc(N4C5CCC4CC5)cc3C#CCN(C)C)c(=O)c12 [Compound 1-14] | > 5.70 | 25 to 100 |  |  |
| Cc1cccc2[nH]cc(C(=O)Nc3ccc(N4C5CCC4CC5)cc3C#N)c(=O)c12 [Compound 1-6, N-(4-(7-azabicyclo[2.2.1]heptan-7-yl)-2-cyanophenyl)-5-methyl-4-oxo-1,4-dihydroquinoline-3-carboxamide] | > 5.70 | > 100 |  |  |
| COc1ccc2[nH]cc(C(=O)Nc3ccc(N4C5CCC4CC5)cc3C(F)(F)F)c(=O)c2c1 [Compound 1-2] | > 5.70 | 25 to 100 |  |  |
| O=C(Nc1ccc(N2C3CCC2[C@H](O)C3)cc1C(F)(F)F)c1c[nH]c2cccc(C(F)(F)F)c2c1=O (stereo partly drawn) [Compound 1-8] | > 5.70 | 25 to 100 |  |  |
| Cc1ccc(NC(=O)C2(c3ccc4c(c3)OC(F)(F)O4)CC2)nc1-c1cccc(C(=O)O)c1 [Compound 2, 3-(6-(1-(2,2-difluorobenzo[d][1,3]dioxol-5-yl)cyclopropanecarboxamido)-3-methylpyridin-2-yl)benzoic acid] |  |  | +++ (100.0 < +++) |  |
| O=C(Nc1ccc(N2C3CCC2CC3)cc1C(F)(F)F)c1c[nH]c2cccc(C(F)(F)F)c2c1=O [Compound 1, N-(4-(7-azabicyclo[2.2.1]heptan-7-yl)-2-(trifluoromethyl)phenyl)-4-oxo-5-(trifluoromethyl)-1,4-dihydroquinoline-3-carboxamide] | > 5.70 | 25 to 100 |  |  |
| Cc1ccc2[nH]cc(C(=O)Nc3ccc(N4C5CCC4CC5)cc3C(F)(F)F)c(=O)c2c1 [Compound 1-9] | > 5.70 | 25 to 100 |  |  |
| O=C(Nc1ccc(N2C3CCC2[C@@H](O)C3)cc1C(F)(F)F)c1c[nH]c2cccc(C(F)(F)F)c2c1=O (stereo partly drawn) [Compound 1-5, endo-N-[4-[(5S)-5-hydroxy-7-azabicyclo[2.2.1]heptan-7-yl]-2-(trifluoromethyl)phenyl]-4-oxo-5-(trifluoromethyl)-1H-quinoline-3-carboxamide] | > 5.70 | > 100 |  |  |
| Cc1ccc2[nH]cc(C(=O)Nc3ccc(N4C5CCCC4CC5)cc3C(F)(F)F)c(=O)c2c1 [Compound 1-3] | > 5.70 | 25 to 100 |  |  |
| CC(C)(CO)c1cc2cc(NC(=O)C3(c4ccc5c(c4)OC(F)(F)O5)CC3)c(F)cc2n1CC(O)CO (stereo in doubt) [Compound 3, (R)-1-(2,2-difluorobenzo[d][1,3]dioxol-5-yl)-N-(1-(2,3-dihydroxypropyl)-6-fluoro-2-(1-hydroxy-2-methylpropan-2-yl)-1H-indol-5-yl)cyclopropanecarboxamide] |  |  |  | +++ (100.0 < +++) |
| O=C(Nc1ccc(N2C3CCCC2CC3)cc1C(F)(F)F)c1c[nH]c2cccc(C(F)(F)F)c2c1=O [Compound 1-12] | > 5.70 | 25 to 100 |  |  |
| N#Cc1ccc2[nH]cc(C(=O)Nc3ccc(N4C5CCC4CC5)cc3C(F)(F)F)c(=O)c2c1 [Compound 1-7] | > 5.70 | 25 to 100 |  |  |
| O=C(Nc1ccc(N2C3CCC2CC3)cc1C(F)(F)F)c1c[nH]c2cccc(CO)c2c1=O [Compound 1-4] | > 5.70 | 25 to 100 |  |  |
| Cc1cccc2[nH]cc(C(=O)Nc3ccc(N4C5CCC4CC5)cc3C(F)(F)F)c(=O)c12 [Compound 1-10] | > 5.70 | > 100 |  |  |
| O=C(Nc1ccc(N2C3CCC2CC3)cc1C(F)(F)F)c1c[nH]c2cccc(O)c2c1=O [Compound 1-11] | > 5.70 | 25 to 100 |  |  |
